# Data: patent US8192962B2, “Processes for detecting toxic substances” (Daikin Industries, Ltd., priority 2001, dated 2012)
# Tested on: Detoxification protein genes
# Experiment: DNA chip mRNA expression in yeast, detoxification protein genes (Table 8)
# Type: cell-based, Saccharomyces cerevisiae S288C
# In short: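 S. cerevisiae S288C grown at 25° C. in YPD to log phase, then exposed 2 h to a toxicant at a growth-inhibiting, non-lethal concentration; untreated cells as control. Poly(A) mRNA reverse-transcribed with Cy3-dUTP or Cy5-dUTP, hybridized >12 h at 65° C. to whole-genome yeast DNA chip; value = fluorescence ratio treated/untreated.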
compound,measurement,setting,value
"[Cl][Hg][Cl] [(3), HgCl2]",The level of expressed mRNA in the presence of chemical substance/The level of expressed mRNA in the absence of chemical substance,yeast gene YBR244W,2.0
same,The level of expressed mRNA in the presence of chemical substance/The level of expressed mRNA in the absence of chemical substance,yeast gene YBR293W,1.0
same,The level of expressed mRNA in the presence of chemical substance/The level of expressed mRNA in the absence of chemical substance,yeast gene YCL035C,1.5
same,The level of expressed mRNA in the presence of chemical substance/The level of expressed mRNA in the absence of chemical substance,yeast gene YCL069W,0.9
same,The level of expressed mRNA in the presence of chemical substance/The level of expressed mRNA in the absence of chemical substance,yeast gene YCR083W,1.5
same,The level of expressed mRNA in the presence of chemical substance/The level of expressed mRNA in the absence of chemical substance,yeast gene YDL100C,1.1
same,The level of expressed mRNA in the presence of chemical substance/The level of expressed mRNA in the absence of chemical substance,yeast gene YDL168W,2.1
same,The level of expressed mRNA in the presence of chemical substance/The level of expressed mRNA in the absence of chemical substance,yeast gene YDR256C,0.7
same,The level of expressed mRNA in the presence of chemical substance/The level of expressed mRNA in the absence of chemical substance,yeast gene YDR453C,4.4
same,The level of expressed mRNA in the presence of chemical substance/The level of expressed mRNA in the absence of chemical substance,yeast gene YDR513W,2.3
same,The level of expressed mRNA in the presence of chemical substance/The level of expressed mRNA in the absence of chemical substance,yeast gene YDR538W,2.4
same,The level of expressed mRNA in the presence of chemical substance/The level of expressed mRNA in the absence of chemical substance,yeast gene YEL027W,3.4
same,The level of expressed mRNA in the presence of chemical substance/The level of expressed mRNA in the absence of chemical substance,yeast gene YEL065W,1.2
same,The level of expressed mRNA in the presence of chemical substance/The level of expressed mRNA in the absence of chemical substance,yeast gene YER185W,2.1
same,The level of expressed mRNA in the presence of chemical substance/The level of expressed mRNA in the absence of chemical substance,yeast gene YFL050C,1.1
same,The level of expressed mRNA in the presence of chemical substance/The level of expressed mRNA in the absence of chemical substance,yeast gene YGL013C,0.8
same,The level of expressed mRNA in the presence of chemical substance/The level of expressed mRNA in the absence of chemical substance,yeast gene YGL254W,0.8
same,The level of expressed mRNA in the presence of chemical substance/The level of expressed mRNA in the absence of chemical substance,yeast gene YGR088W,7.7
same,The level of expressed mRNA in the presence of chemical substance/The level of expressed mRNA in the absence of chemical substance,yeast gene YGR138C,1.0
same,The level of expressed mRNA in the presence of chemical substance/The level of expressed mRNA in the absence of chemical substance,yeast gene YGR197C,2.5
same,The level of expressed mRNA in the presence of chemical substance/The level of expressed mRNA in the absence of chemical substance,yeast gene YGR209C,3.5
same,The level of expressed mRNA in the presence of chemical substance/The level of expressed mRNA in the absence of chemical substance,yeast gene YGR224W,1.2
same,The level of expressed mRNA in the presence of chemical substance/The level of expressed mRNA in the absence of chemical substance,yeast gene YHL040C,1.5
same,The level of expressed mRNA in the presence of chemical substance/The level of expressed mRNA in the absence of chemical substance,yeast gene YHL047C,1.0
same,The level of expressed mRNA in the presence of chemical substance/The level of expressed mRNA in the absence of chemical substance,yeast gene YHR008C,4.8
same,The level of expressed mRNA in the presence of chemical substance/The level of expressed mRNA in the absence of chemical substance,yeast gene YHR048W,1.4
same,The level of expressed mRNA in the presence of chemical substance/The level of expressed mRNA in the absence of chemical substance,yeast gene YHR053C,0.7
same,The level of expressed mRNA in the presence of chemical substance/The level of expressed mRNA in the absence of chemical substance,yeast gene YHR055C,0.8
same,The level of expressed mRNA in the presence of chemical substance/The level of expressed mRNA in the absence of chemical substance,yeast gene YIR002C,0.5
same,The level of expressed mRNA in the presence of chemical substance/The level of expressed mRNA in the absence of chemical substance,yeast gene YIR038C,4.6
same,The level of expressed mRNA in the presence of chemical substance/The level of expressed mRNA in the absence of chemical substance,yeast gene YJL101C,2.1
same,The level of expressed mRNA in the presence of chemical substance/The level of expressed mRNA in the absence of chemical substance,yeast gene YJR104C,2.9
same,The level of expressed mRNA in the presence of chemical substance/The level of expressed mRNA in the absence of chemical substance,yeast gene YKL026C,1.2
same,The level of expressed mRNA in the presence of chemical substance/The level of expressed mRNA in the absence of chemical substance,yeast gene YKL064W,0.4
same,The level of expressed mRNA in the presence of chemical substance/The level of expressed mRNA in the absence of chemical substance,yeast gene YKR066C,5.5
same,The level of expressed mRNA in the presence of chemical substance/The level of expressed mRNA in the absence of chemical substance,yeast gene YKR105C,0.9
same,The level of expressed mRNA in the presence of chemical substance/The level of expressed mRNA in the absence of chemical substance,yeast gene YKR106W,2.1
same,The level of expressed mRNA in the presence of chemical substance/The level of expressed mRNA in the absence of chemical substance,yeast gene YLL028W,4.6
same,The level of expressed mRNA in the presence of chemical substance/The level of expressed mRNA in the absence of chemical substance,yeast gene YLL057C,1.8
same,The level of expressed mRNA in the presence of chemical substance/The level of expressed mRNA in the absence of chemical substance,yeast gene YLL060C,2.3
same,The level of expressed mRNA in the presence of chemical substance/The level of expressed mRNA in the absence of chemical substance,yeast gene YLR043C,2.0
same,The level of expressed mRNA in the presence of chemical substance/The level of expressed mRNA in the absence of chemical substance,yeast gene YLR046C,0.9
same,The level of expressed mRNA in the presence of chemical substance/The level of expressed mRNA in the absence of chemical substance,yeast gene YML028W,4.4
same,The level of expressed mRNA in the presence of chemical substance/The level of expressed mRNA in the absence of chemical substance,yeast gene YML116W,1.5
same,The level of expressed mRNA in the presence of chemical substance/The level of expressed mRNA in the absence of chemical substance,yeast gene YMR015C,1.9
same,The level of expressed mRNA in the presence of chemical substance/The level of expressed mRNA in the absence of chemical substance,yeast gene YMR038C,1.8
same,The level of expressed mRNA in the presence of chemical substance/The level of expressed mRNA in the absence of chemical substance,yeast gene YNL239W,2.4
same,The level of expressed mRNA in the presence of chemical substance/The level of expressed mRNA in the absence of chemical substance,yeast gene YNL241C,4.3
same,The level of expressed mRNA in the presence of chemical substance/The level of expressed mRNA in the absence of chemical substance,yeast gene YNL259C,1.1
same,The level of expressed mRNA in the presence of chemical substance/The level of expressed mRNA in the absence of chemical substance,yeast gene YOL158C,2.4
same,The level of expressed mRNA in the presence of chemical substance/The level of expressed mRNA in the absence of chemical substance,yeast gene YOR031W,1.3
same,The level of expressed mRNA in the presence of chemical substance/The level of expressed mRNA in the absence of chemical substance,yeast gene YOR153W,5.1
same,The level of expressed mRNA in the presence of chemical substance/The level of expressed mRNA in the absence of chemical substance,yeast gene YOR247W,3.6
same,The level of expressed mRNA in the presence of chemical substance/The level of expressed mRNA in the absence of chemical substance,yeast gene YOR251C,1.3
same,The level of expressed mRNA in the presence of chemical substance/The level of expressed mRNA in the absence of chemical substance,yeast gene YOR273C,1.7
same,The level of expressed mRNA in the presence of chemical substance/The level of expressed mRNA in the absence of chemical substance,yeast gene YPL163C,1.4
same,The level of expressed mRNA in the presence of chemical substance/The level of expressed mRNA in the absence of chemical substance,yeast gene YPR200C,0.8
